From patent US20100069393A1, “METHOD OF TREATMENT AND AGENTS USEFUL FOR SAME” (PRANA BIOTECHNOLOGY LIMITED, priority 2006, published 2010)

Columns and labels:
[1] = In vivo toxicity, visual observations; details: 30 mg/kg, number of days
[2] = Neurotoxicity assay: MTS viability of primary cortical neuronal cultures; type: cell-based, mouse; details: BL6Jx129sv, mouse, primary cortical neuronal cultures, Neuronal cells, read-out: Cytotoxicity (% viable at 1 and 10 uM); for viability at 4 days, 1 uM: test compound 1 uM; for viability at 4 days, 10 uM: test compound 10 uM
Procedure: Media was then replaced with Neurobasal media (Invitrogen Life Technologies) and B27 supplements (Invitrogen Life Technologies). Cultures were maintained at 37° C. in 5% CO2. Prior to experimentation, the culture medium was replaced with Neurobasal media and B27 minus antioxidants (Invitrogen Life Technologies).
Cell viability is determined using the MTS assay. Culture medium is replaced with fresh neurobasal medium plus B27 supplements minus antioxidants. 1/10th volume MTS solution (Cell Titre 96 Aqueous One, Promega Corporation) and incubated at 37° C., 2 hrs. 200 microlitre aliquots are measured with a spectrophotometer at 560 nm.
Neuronal cortical cells were cultured for five days as per Assay 2 in NB media and B27 supplement.
On day six the test compounds were added to the neuronal cell cultures in NB media and B27 supplement minus antioxidants.
Test compounds were dissolved in 100% DMSO to a concentration of 2.5 mM (10 mM if excess compound was weighed out per vial—then diluted to 2.5 mM). […] Test compounds were not added directly to cells, instead they were added to a 48 well ‘Drug Plate’ as comprised below:
The Drug Plate was incubated at 37° C. for 15 mins. 200 μl of each well was added in triplicate to the corresponding cell plate. The cell plate was incubated at 37 C, for 4 days.
On completion of the assay, 1/10 volume MTS was added per well of plate (i.e. 25 μl/250 μl). The plates were incubated at 37 C for 2 hrs, and then absorbance was read at 560 nm.

[3] = Cytotoxicity: viability of M17 cells; details: human, M17 neuroblastoma cells, Cytotoxicity (% viable at 1 and 10 uM); for viability at 1 uM: test compound 1 uM; for viability at 10 uM: test compound 10 uM
[4] = Mice plasma concentration; type: in vivo; details: for Mice plasma concentration: presence in plasma at one or two time points (between 30 min and 4 h); for Mice plasma concentration (single dose): one or two time points (between 30 min and 4 h)

| Mice plasma concentration [4] | Mice plasma concentration (single dose) [4] | Structure (SMILES) | Toxicity at 30 mg/kg [1] | viability at 4 days, 1 uM [2] | viability at 4 days, 10 uM [2] | viability at 1 uM [3] | viability at 10 uM [3] |
| --- | --- | --- | --- | --- | --- | --- | --- |
|  |  | Cc1cnc(-n2cnc3c(O)c(Cl)cc(Cl)c3c2=O)s1 | 10 days, mild signs | 94% | 70% |  |  |
| Up to 441.4 ng/mL |  | O=c1c2c(Cl)cc(Cl)c(O)c2ncn1Cc1nccs1 | 10 days, none |  |  | 96% | 99.8% |
|  |  | O=C1NC(=O)c2cc(-n3cnc4c(O)c(Cl)cc(Cl)c4c3=O)ccc21 | 10 days, none |  |  | 85.4% | 93.3% |
|  | Up to 10 ng/mL (single dose) | O=c1c2c(Cl)cc(Cl)c(O)c2ncn1CCN1CCOCC1 | 10 days, none | 98% | 81% |  |  |
| Up to 1639.8 ng/mL |  | O=c1c2c(Cl)cc(Cl)c(O)c2ncn1CCNCc1ccncc1 | 10 days, none |  |  | 103% | 105% |
|  |  | CCCCc1cnc2c(O)c(I)ccn2c1=O | 10 days, 2/4 deaths |  |  | 102% | 58.7% |
| Up to 690 ng/ml ng/mL |  | CCCc1cnc2c(O)cccn2c1=O | 10 days, none |  |  | 79.1% | 45.2% |
| Up to 642.6 ng/mL |  | Br.CN(C)Cc1nc2c(O)c(Cl)cc(Cl)c2c(=O)[nH]1 | 10 days, none |  |  | 97.4% | 100% |
| Up to 1593 ng/ml ng/mL |  | CCCn1cnc2c(O)c(I)ccc2c1=S | 10 days, none |  |  | 89.9% | 86.2% |
|  |  | O=c1c2c(Cl)cc(Cl)c(O)c2ncn1N1CCCC1 | 10 days, none | 101% | 88% |  |  |
| Up to 1538 ng/mL |  | O=c1c2ccc(I)c(O)c2ncn1Cc1ccccn1 | 10 days, none |  |  | 93.8% | 84.5% |
| Up to 128.4 ng/mL |  | O=c1c2cccc(O)c2ncn1Cc1cccc(Cn2cnc3c(O)cccc3c2=O)n1 | 10 days, none |  |  | 117% | 106% |
|  |  | O=c1c2c(Cl)cc(Cl)c(O)c2ncn1-c1ccc(Cl)cn1 | 10 days, none | 94% | 58% | 86.9% | 70.5% |
|  | Up to 125.5 ng/mL (Single dose) | CCNC(=O)c1cnc2c(O)c(CC)ncc2c1.Cl |  |  |  | 84.4% | 92.1% |
| Up to 207 ng/mL |  | CN1CCN(n2cnc3c(O)c(Cl)cc(Cl)c3c2=O)CC1 | 10 days, none | 96% | 91% |  |  |
| Up to 13214.8 ng/mL |  | Cn1ccnc1Cn1cnc2c(O)c(Cl)cc(Cl)c2c1=O | 10 days, none |  |  | 108% | 97.6% |
| Up to 510.4 ng/mL |  | Br.CNCc1nc2c(O)c(Cl)cc(Cl)c2c(=O)n1C | 10 days, none |  |  | 96% | 90.6% |
|  |  | Nc1cc(Cn2cnc3c(O)c(Cl)cc(Cl)c3c2=O)ccn1 | 10 days, 1 of 4 deaths |  |  | 95.1% | 93.9% |
|  |  | CC(C)c1cnc2c(O)c(I)ccn2c1=O | 10 days, 1/4 death, remaining 1/3 mild sings |  |  | 96.7% | 44.2% |
|  | Up to 262 ng/mL in mice (single dose) | CN1CCCC1CCn1cnc2c(O)c(Cl)cc(Cl)c2c1=O (stereo not drawn) | 10 days, none | 105% | 94% |  |  |

| Structure (SMILES) | Mice plasma concentration [4] | Mice plasma concentration (single dose) [4] | Toxicity at 30 mg/kg [1] | viability at 4 days, 1 uM [2] | viability at 4 days, 10 uM [2] | viability at 1 uM [3] | viability at 10 uM [3] |
| --- | --- | --- | --- | --- | --- | --- | --- |
| O=c1c2c(Cl)cc(Cl)c(O)c2ncn1Cc1cn2ccccc2n1 | Up to 98.3 ng/mL |  | 10 days, none |  |  | 109% | 98.2% |
| O=c1c(-c2ccc(Cl)cc2)cnc2c(O)c(I)ccn12 | Up to 450 ng/mL |  | 10 days, mild toxic signs | 41% | 33% |  |  |
| CCCCc1cnc2c(O)cccn2c1=S | Up to 57 ng/ml ng/mL |  | 7 days, 2/4 deaths |  |  |  |  |
